We go through three molecules from US7259142B2, “Redox-stable, non-phosphorylated cyclic peptide inhibitors of SH2 domain binding to target protein, conjugates thereof, compositions and methods of synthesis and use” (The United States of America, represented by the Secretary, …, priority 1999, dated 2007).

Read-outs that look alike come from different tables or passages of the source. Where a SMILES comes first, the peptide text is derived from it. Bridges are numbered along the chain shown (N, C = ends). Where no end group is shown, it is not given here. [ ]: non-standard residue; d: D form. pY = N[C@@H](Cc1ccc(OP(=O)(O)O)cc1)C(=O)O; Gla = N[C@@H](CC(C(=O)O)C(=O)O)C(=O)O

The target of assay [1] is recombinant GST-Grb2 SH2 protein (Homo sapiens, UniProt P62993). In words: Biacore Surface Plasmon Resonance competitive binding assay against immobilized SHC(pTyr-317)-9-mer phosphopeptide. The note with it: Biacore SPR, GST-Grb2-SH2 150-250 nM, PBS pH 7.4; mean of at least two independent experiments; read-out: IC50 (concentration at which half-maximal competition was observed). The method, then:
The competitive binding affinity of the present inventive compounds was assessed using Biacore Surface Plasmon Resonance (SPR) methods utilizing a Biacore 2000 instrument. The concentrations at which half-maximal competition was observed (IC50) were determined by mixing the inhibitor with recombinant GST-Grb2 SH2 protein and measuring the amount of competitive binding at equilibrium to an immobilized (via biotin conjugation to streptavidin coated surface of the Biacore sensor chip SA; 2 nM concentration) SHC(pTyr-317)-9-mer phosphopeptide in a manner similar to that reported previously (Oligino et al. (1997), supra). Specifically, competitive binding assays were carried out at 5 μl/min flow rate, with GST-Grb2-SH2 (150-250 nM) and a cyclic peptide inhibitor (10 nM-2 mM) in phosphate-buffered saline (PBS), pH 7.4, containing 0.01% P-20 surfactant (Biacore, Inc., Piscataway, N.J.) for a total of 10 min. The change in response units (RU) at equilibrium was measured from the absorption profiles and the percent of control (no added peptide) was calculated. […] The results represent the mean value of at least two independent experiments.
For orientation: In SPR one partner is held on a chip, and binding of the other changes the refractive index at the surface.

In assay [2] the target is T1, p185^erbB-2 receptor association with the Grb2 adapter protein (MDA-MB-453 cell lysates) (Homo sapiens, UniProt P62993).
T1 construct: endogenous in cells; host or cells: MDA-MB-453 breast cancer cells
T1 sequence (P62993 whole entry): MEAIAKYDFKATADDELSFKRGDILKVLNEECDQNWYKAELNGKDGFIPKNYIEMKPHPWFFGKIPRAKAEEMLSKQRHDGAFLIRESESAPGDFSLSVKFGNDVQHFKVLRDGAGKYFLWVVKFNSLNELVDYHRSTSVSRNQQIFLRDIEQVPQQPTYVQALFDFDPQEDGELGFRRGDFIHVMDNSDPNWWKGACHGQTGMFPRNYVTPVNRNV
Nature of the assay: Inhibition of p185erbB-2 interaction with Grb2 in cell homogenates (anti-Grb2 immunoprecipitation, anti-pTyr Western blot). It counts as biochemical. As to the method:
Cell lysates were prepared from the serum-treated erbB-2-overexpressing breast cancer cell line MDA-MB-453 using 1% Triton X-100 in PBS containing 0.2 mM NaVO4. Lysates were incubated with the present inventive cyclic peptide inhibitors specified in Example 1 and Example 12, at concentrations of 0.1, 0.4, 2, 10 and 50 μM. No inhibitor was used as a control. Cell lysates were prepared using 1% Triton X-100 in PBS containing 0.2 mM NaVO4. Grb2 and associated Grb2-binding proteins were immunoprecipitated from each lysate (500 μg) with anti-Grb2 antibodies and collected using protein A Sepharose using methods previously described. Immunoprecipitated proteins were separated by SDS-PAGE on 8-16% gradient gels (Novex). pTyr-containing proteins were detected by Western blotting using anti-phosphotyrosine antibodies (Upstate Biotechnology Inc.). Previous experiments have shown that a major tyrosine phosphorylated protein in MDA-MB-453 cells is p185^erbB-2, which is overexpressed as a consequence of gene amplification. […] A dose-dependent inhibition of the p185^erbB-2 receptor association with the Grb2 adapter protein was observed.

For assay [3], the target named is T2, p185^erbB-2/Grb2 association in MDA-MB-453 cells (Homo sapiens, UniProt P62993).
T2 construct: endogenous in cells; host or cells: MDA-MB-453 breast cancer cells
T2 sequence (P62993 whole entry): as above
Nature of the assay: Inhibition of intracellular p185erbB-2/Grb2 association in whole MDA-MB-453 cells. The conditions noted are these: for concentration of effective inhibition of p185erbB-2/Grb2 association in cells: whole MDA-MB-453 cells treated 3 hrs in serum-free IMEM, inhibitor 0.1-50 μM. The format is cell-based. As to the method: The compound of Example 1, and the conjugate of Example 12, were tested in MDA-MB-453 cells (breast cancer cells that overexpress p185^erbB-2 receptor) at inhibitor concentrations of 0.1, 0.4, 2, 10 and 50 μM. In the control experiment, no inhibitor was used. The cells were treated for 3 hrs in serum-free IMEM medium. The cells were washed twice with ice-cold PBS to remove the residual inhibitory compound that was not internalized.
Cell lysates were prepared using 1% Triton X-100 in PBS containing 0.2 mM NaVO4. Grb2 and associated Grb2-binding proteins were immunoprecipitated from each lysate (500 μg) with anti-Grb2 antibodies and collected using protein A Sepharose using methods previously described. Immunoprecipitated proteins were separated by SDS-PAGE on 8-16% gradient gels (Novex). pTyr-containing proteins were detected by Western blotting using anti-phosphotyrosine antibodies (Upstate Biotechnology Inc.). Previous experiments have shown that a major tyrosine phosphorylated protein in MDA-MB-453 cells is p185^erbB-2, which is overexpressed as a consequence of gene amplification.
In these whole cell assays the agents were applied to the cell culture media of MDA-MB-453 cells. These conditions required that compounds transit through the cell membrane.

The target of assay [4] is SH2 domain of Grb2 (Homo sapiens, UniProt P62993). The conditions noted are these: background, previously reported values; read-out: IC50 (receptor affinity); cited from earlier work.
Sequence of SH2 domain of Grb2 (P62993 60-152 limits assumed): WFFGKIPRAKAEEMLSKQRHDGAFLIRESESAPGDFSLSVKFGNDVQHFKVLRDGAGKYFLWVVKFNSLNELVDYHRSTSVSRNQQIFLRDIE

Sequence of recombinant GST-Grb2 SH2 protein (P62993 60-152 limits assumed): as above

With `CSCC[C@@H]1NC(=O)CNC(=O)[C@H](C(C)C)NC(=O)[C@H](CC(N)=O)NC(=O)[C@H](CCC(=O)O)NC(=O)[C@H](Cc2ccc(O)cc2)NC(=O)[C@H](CC(C)C)NC(=O)[C@H](CC(C(=O)O)C(=O)O)NC(=O)CSC[C@@H](C(N)=O)NC(=O)[C@H](Cc2ccc(O)cc2)NC1=O` [Example 1, cyclo(CH2CO-Gla^1-Leu^2-Tyr^3-Glu^4-Asn^5-Val^6-Gly^7-Met^8-Tyr^9-Cys)-amide] ({CH2CO}-[Gla]LYENVGMYC-NH2; thioether N-10), the IC50 in assay [1] was 0.64 ± 0.1 µM; in assay [2] (MDA-MB-453 cell lysates, inhibitor 0.1-50 μM, read-out: half-maximal inhibition of p185erbB-2/Grb2 protein association), 2 µM. Further, the “concentration of effective inhibition of p185erbB-2/Grb2 association in cells” value in assay [3] was 50 µM.

The molecule `CSCC[C@@H]1NC(=O)CNC(=O)[C@H](C(C)C)NC(=O)[C@H](CC(N)=O)NC(=O)[C@H](CCC(=O)O)NC(=O)[C@H](Cc2ccc(O)cc2)NC(=O)[C@H](CC(C)C)NC(=O)[C@H](CC(C(=O)O)C(=O)O)NC(=O)CSC[C@@H](C(=O)N[C@@H](C)C(=O)N[C@@H](C)C(=O)N[C@H](C(=O)N[C@@H](C)C(=O)N[C@@H](CC(C)C)C(=O)N[C@@H](CC(C)C)C(=O)N2CCC[C@H]2C(=O)N[C@@H](C)C(=O)N[C@H](C(=O)N[C@@H](CC(C)C)C(=O)N[C@@H](CC(C)C)C(=O)N[C@@H](C)C(=O)N[C@@H](CC(C)C)C(=O)N[C@@H](CC(C)C)C(=O)N[C@@H](C)C(=O)N2CCC[C@H]2C(N)=O)C(C)C)C(C)C)NC(=O)[C@H](Cc2ccc(O)cc2)NC1=O` [Example 12, cyclo(CH2CO-Gla^1-Leu^2-Tyr^3-Glu^4-Asn^5-Val^6-Gly^7-Met^8-Tyr^9-Cys)-NH-Ala-Ala-Val-Ala-Leu-Leu-Pro-Ala-Val-Leu-Leu-Ala-Leu-Leu-Ala-Pro] ({CH2CO}-[Gla]LYENVGMYCAAVALLPAVLLALLAP-NH2; thioether N-10) returned an IC50 in assay [2] of 2 µM. For the same molecule, the “reduction in the associated p185erbB-2 bound to Grb2 in cells” value in assay [3] (whole MDA-MB-453 cells pre-treated with increasing amounts) is reported as “clear dose-dependent reduction”. In assay [3], the “concentration of effective inhibition of p185erbB-2/Grb2 association in cells” value came to 2 µM.

As for “SHC(pY^317)-9-mer: segment of the naturally phosphorylated ligand (DDPS[pY]VNVQ)”, the IC50 in assay [4] was 1 µM.
